Experimental data reported in PMC6892255, “Identification of a potent small-molecule inhibitor of bacterial DNA repair that potentiates quinolone antibiotic activity in methicillin-resistant Staphylococcus aureus^” (Bioorganic & Medicinal Chemistry, 2019).
Entries after “also recorded” stand apart in the source; their conditions may differ.

Tests used:
[1] = test system: SOS response in JE2 cells; assay: SOS reporter assay (GFP under control of the recA promoter); type: cell-based, Staphylococcus aureus; conditions: for SOS response (normalized GFP fluorescence/cell): JE2 recA-GFP reporter, SOS activated with CFX (10 µM), titration of compound
Text: A SOS reporter system was generated by transformation of JE2 cells with a plasmid containing GFP under control of the recA promoter. Activation of the SOS response in these cells results in expression of GFP which can be monitored by fluorescence intensity. […] IMP-1700 (10) was coupled with N-Boc-ethylenediamine to afford amide 19, followed by removal of the Boc group in 4 M HCl/dioxane and purification using strong cation exchange resin. The resulting free amine 20 was coupled to N-hydroxysuccinimide (NHS)-activated Sepharose resin at 4 °C overnight (Figure 2C), and the remaining NHS sites quenched in Tris buffer. SoluBL21 competent E. coli were transformed with pET28b^+ containing StrepII-tagged AddA and hexahistidine-tagged AddB, and expression induced overnight at 16 °C. […] Beads were washed three times with lysis buffer and bound protein eluted with SDS-PAGE sample buffer, followed by PAGE separation. […]
JE2 transformed with SOS-inducible pCN34 PrecA-gfp reporter plasmid expressing GFP under the control of the recA promoter were grown to late stationary phase at 37 °C in MHB containing kanamycin (90 μg/mL). Stationary phase JE2 culture (1 mL) was centrifuged (17,000 × g, 2 min), the supernatant removed and cells resuspended in assay media (12.5 µM […]
concentration was maintained >12.5 µM and DMSO concentration maintained at 1.5% (v/v).
JE2 culture (20 uL) was added to inhibitor solutions (180 µL) to a final cell density of 4 x 10^7 CFU/mL and samples incubated in a M200-PRO microplate reader (Tecan) at 37 °C with 700 rpm agitation for 17 h. GFP fluorescence intensity and OD600 were measured at 15 min intervals. Measurements were background corrected against no-inocula control and normalized to no-test inhibitor control at mid-exponential growth phase (4.5 h) for dose-response analysis. […]

[2] = biological target: T1, E. coli topoisomerase IV (Escherichia coli, UniProt P0AFI2+P20083); assay: Topoisomerase IV supercoiling relaxation assay (pQE80L); type: biochemical; conditions: at 12.5 µM (compounds)
T1 construct: purchased Inspiralis
T1 sequence (P0AFI2 whole entry): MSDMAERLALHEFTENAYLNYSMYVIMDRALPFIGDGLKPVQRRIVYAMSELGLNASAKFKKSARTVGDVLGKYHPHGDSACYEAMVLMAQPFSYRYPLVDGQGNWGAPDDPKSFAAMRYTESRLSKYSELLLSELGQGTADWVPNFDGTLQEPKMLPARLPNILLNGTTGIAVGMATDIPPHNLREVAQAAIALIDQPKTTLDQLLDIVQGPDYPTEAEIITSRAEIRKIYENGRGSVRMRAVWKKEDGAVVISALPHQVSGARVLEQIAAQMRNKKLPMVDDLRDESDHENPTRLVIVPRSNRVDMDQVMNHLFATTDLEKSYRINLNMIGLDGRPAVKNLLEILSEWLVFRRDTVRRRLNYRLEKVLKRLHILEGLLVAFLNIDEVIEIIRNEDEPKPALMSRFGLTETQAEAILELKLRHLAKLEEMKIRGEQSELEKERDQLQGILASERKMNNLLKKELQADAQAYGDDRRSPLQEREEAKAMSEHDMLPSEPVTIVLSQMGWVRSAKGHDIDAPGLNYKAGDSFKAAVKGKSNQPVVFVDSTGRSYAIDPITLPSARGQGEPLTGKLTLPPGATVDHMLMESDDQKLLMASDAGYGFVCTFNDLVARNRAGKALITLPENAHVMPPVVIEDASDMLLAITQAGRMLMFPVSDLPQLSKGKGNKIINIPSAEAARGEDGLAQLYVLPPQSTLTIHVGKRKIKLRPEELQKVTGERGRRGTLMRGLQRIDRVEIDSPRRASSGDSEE
T1 sequence (P20083 whole entry): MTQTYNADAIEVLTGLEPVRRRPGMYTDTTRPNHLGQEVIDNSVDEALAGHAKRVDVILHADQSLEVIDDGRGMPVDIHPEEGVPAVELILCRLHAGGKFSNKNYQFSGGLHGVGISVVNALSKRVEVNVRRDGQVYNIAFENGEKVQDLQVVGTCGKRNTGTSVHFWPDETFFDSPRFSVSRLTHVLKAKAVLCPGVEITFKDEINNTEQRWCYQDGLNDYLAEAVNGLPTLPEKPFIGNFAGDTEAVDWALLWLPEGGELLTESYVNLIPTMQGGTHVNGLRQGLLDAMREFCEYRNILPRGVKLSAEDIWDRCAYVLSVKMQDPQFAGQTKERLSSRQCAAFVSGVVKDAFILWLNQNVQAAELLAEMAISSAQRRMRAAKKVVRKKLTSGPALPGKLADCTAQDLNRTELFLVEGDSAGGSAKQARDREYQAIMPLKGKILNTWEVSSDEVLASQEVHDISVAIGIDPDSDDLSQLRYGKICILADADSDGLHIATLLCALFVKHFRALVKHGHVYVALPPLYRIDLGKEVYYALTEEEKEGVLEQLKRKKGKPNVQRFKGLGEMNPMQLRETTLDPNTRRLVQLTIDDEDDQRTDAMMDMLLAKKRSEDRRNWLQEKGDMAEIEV
Experimental: 2.1. Biological and biochemical methods […]
E. coli DNA gyrase supercoiling assay (Inspiralis) was performed according to the manufacturer’s instructions, ensuring a constant concentration of 1% (v/v) DMSO. Samples were separated on a 1% (w/v) agarose gel prepared with Tris/Borate/EDTA (TBE) buffer (1 M Tris-borate, 20 mM EDTA, pH 8.0). Electrophoresis was performed at 100 V until the bromophenol blue dye had run >6 cm to ensure resolution of relaxed and supercoiled DNA.
The gel was stained with SYBR Safe DNA gel stain (Invitrogen, 1:10,000 dilution in TBE) for 30 min, and visualized on a Syngene Gel Doc system. Band intensity was quantified using ImageJ software and the fraction of supercoiled plasmid was determined as the ratio of the density of the supercoiled band to the total density. Values were background corrected against the no-gyrase control and normalized to DMSO control for dose-response analysis.
E. coli topoisomerase IV supercoiling relaxation assay (Inspiralis) was performed according to the manufacturer’s instructions, ensuring a constant concentration of 1% (v/v) DMSO.
Supercoiled pQE80L was prepared via plasmid purification and used as the substrate for the reaction. Reactions were analyzed as described for DNA gyrase assays. […]

[3] = test system: JE2; assay: Synergy experiments with CFX (growth rate method, Chou-Talalay, CompuSyn); type: cell-based, Staphylococcus aureus
Experimental: A more precise method to determine EC50 values for individual compounds and combinations was used to increase accuracy for CI calculations. […]
Synergy experiments were performed as described for MIC assays. Two-fold serial dilutions […]
carried out at 37 °C, with shaking at 220 r.p.m. OD600 was recorded every 30 min over a 17 h period. Measurements were background corrected against the no-inocula control before a growth curve of OD600 against time was constructed. The gradient of the exponential phase was obtained by linear regression. Gradients were normalized against the smallest and largest value within the respective data set prior to analysis with the CompuSyn software (http://www.combosyn.com/) to calculate combination index (CI) and dose-reduction index (DRI) values for each drug combination. […]

[4] = test system: E. coli K-12 BW25113; assay: MIC / growth inhibition assay (end-point OD600), single agent; type: cell-based, Escherichia coli; conditions: Escherichia coli, BW25113, end-point OD600 after 18 h, read-out: EC50 E. coli (K12 BW25113) Compound only
Text: (§1) Minimum inhibitory concentration (MIC) assays were used to evaluate the antimicrobial activity of compounds against Gram-negative (E. coli) and Gram-positive (S. aureus) bacteria. […] Gram-positive bacteria are more susceptible to small-molecule penetration, and compounds were therefore assessed for growth inhibition against the S. aureus SH1000 strain.
(§2) 2.1. Biological and biochemical methods
(§3) Bacterial strains and culture conditions
(§4) Strains utilized in the present study are detailed in Table S1. All strains used were cultivated on Mueller Hinton Agar (MHA) and grown to stationary-phase in Mueller Hinton Broth (MHB) at 37 °C for 16 h, with shaking at 180 r.p.m.
(§5) Minimum inhibitory concentration (MIC) assays
(§6) MIC assays were performed in 96 well plates and MICs were determined in accordance with the broth microdilution protocol.4 Strains grown to stationary-phase in MHB were adjusted to 5 x 10^5 colony-forming units (CFU)/mL in fresh MHB (100 µL/well) supplemented with DMSO to ensure a constant concentration of 0.5% (v/v) DMSO across all experiments. Where […]
(§7) or H2O2 (200 μM). Test compounds were prepared as two-fold serial dilutions. Cells were […]
(§8) as the lowest concentration with no visible bacterial growth, and the optical density at 600 nm (OD600) was recorded. OD600 measurements were background corrected against no-inocula control and normalized to DMSO control for dose-response analysis. The EC50 value mean and SEM were calculated from individual EC50 values from three biological replicates. […]

[5] = test system: methicillin-resistant S. aureus (MRSA, USA300 JE2); assay: as above; type: cell-based, Staphylococcus aureus
Text: as §1
Methicillin-resistant S. aureus (MRSA) is a multi-drug resistant bacterium responsible for a large number of nosocomial infections.[34] The emergence of community associated (CA)-MRSA capable of infection of healthy individuals highlights its significance and clinical relevance.[35]
as §2, §3, §4, §5, §6, §7, §8

[6] = test system: S. aureus SH1000; assay: as above; type: cell-based; conditions: Staphylococcus aureus, SH1000, 18 h, end-point OD600 after 18 h, read-out: EC50 S. aureus (SH1000) Compound only
Text: as §1, §2, §3, §4, §5, §6, §7, §8

[7] = test system: methicillin-resistant S. aureus (MRSA, USA300 JE2); assay: Ciprofloxacin (CFX) potentiation in MRSA growth inhibition assay; type: cell-based, Staphylococcus aureus
Experimental: as §2, §3, §4, §5, §6, §7, §8

Structure (SMILES): O=C(O)c1cn(C2CC2)c2cc(N3CCN(C(=S)Nc4ccc(C(F)(F)F)cc4)CC3)c(F)cc2c1=O [Compound 10]
- Effect on cell number (OD600) in SOS reporter assay ([1]; JE2 recA-GFP reporter with CFX (10 µM)): decrease in cell number at low micromolar concentrations
- SOS response (normalized GFP fluorescence/cell) [1]: decreased
- SOS response (normalized GFP fluorescence/cell) ([1]; listed as IMP-1700): decreased normalized GFP fluorescence/cell; also recorded: decreased SOS response
- Inhibition of topoisomerase IV [2]: not inhibited and not
- Dose-reduction index (DRI) ([3]; JE2, combination with CFX, CompuSyn): 2.8
- Combination index (CI) with CFX ([3]; JE2, constant-ratio combination with CFX, CompuSyn): 0.70
- EC50 ([3]; Staphylococcus aureus, JE2, rate of exponential growth phase over 17 h at 37 °C): 2800 ± 200 nM
- EC50 [4]: 500 ± 50 nM
- EC50 ([5]; Staphylococcus aureus, 18 h, read-out: EC50 S. aureus (USA300 JE2) Compound only, single agent, end-point OD600 after 18 h): 3800 ± 500 nM
- fold less potent against JE2 compared to SH1000 ([5]; ratio of single-agent EC50 values): > 20 fold
- EC50 [6]: 210 ± 30 nM
- fold increase in potency against JE2 in the presence of CFX compared to single agent ([7]; CFX 9.4 µM): ~650 fold
- fold increase in potency compared to 1 for potentiation against JE2 by CFX ([7]; JE2 + CFX): ~160 fold
- fold increase in potency of para- over meta-substituted analogue, potentiation by CFX ([7]; JE2 + CFX, 4 vs 1, 10 vs 7, 14 vs 13): ~25 fold
- EC50 ([7]; read-out: EC50 S. aureus (USA300 JE2) Compound + CFX (9.4 μM), in presence of half-MIC CFX (9.4 μM)): 5.9 ± 0.6 nM
